Assay results taken from PubChem BioAssay (NCI).
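Cells were grown in 96-well plates and exposed to each compound for 48 hours at five concentrations; endpoints were interpolated linearly between bracketing concentrations, or set to the highest concentration if not reached. TGI marks complete inhibition of growth.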

Legend:
Experiment in all cases: NCI tumour cell line growth inhibition, 48 h
[1] = tested on: 786-0 renal
[2] = tested on: A498 renal
[3] = tested on: COLO 205 colon
[4] = tested on: DU-145 prostate
[5] = tested on: EKVX NSCLC
[6] = tested on: HL-60(TB) leukemia
[7] = tested on: HS 578T breast
[8] = tested on: HT29 colon
[9] = tested on: IGROV1 ovarian
[10] = tested on: MCF7 breast
[11] = tested on: MDA-MB-231 breast
[12] = tested on: NCI/ADR-RES ovarian
[13] = tested on: PC-3 prostate
[14] = tested on: RXF 393 renal
[15] = tested on: SF-268 CNS
[16] = tested on: SNB-19 CNS
[17] = tested on: T-47D breast
[18] = tested on: UACC-62 melanoma
[19] = tested on: CCRF-CEM leukemia

| Compound | TGI [1] [µM] | TGI [2] [µM] | TGI [3] [µM] | TGI [4] [µM] | TGI [5] [µM] | TGI [6] [µM] | TGI [7] [µM] | TGI [8] [µM] | TGI [9] [µM] | TGI [10] [µM] | TGI [11] [µM] | TGI [12] [µM] | TGI [13] [µM] | TGI [14] [µM] | TGI [15] [µM] | TGI [16] [µM] | TGI [17] [µM] | TGI [18] [µM] | TGI [19] [µM] |
| --- | --- | --- | --- | --- | --- | --- | --- | --- | --- | --- | --- | --- | --- | --- | --- | --- | --- | --- | --- |
| CSc1c(C#N)c(O)n(-c2ccc(Cl)cc2)c(=O)c1C#N | > 100 | > 100 | > 100 | > 100 | > 100 | > 100 | > 100 | > 100 | > 100 | > 100 | > 100 | > 100 | > 100 | > 100 | > 100 | > 100 | > 100 | > 100 |  |
| Brc1ccc(-c2ccc(-c3ccc(-c4ccc(Br)s4)s3)s2)s1 | > 100 | > 100 | > 100 | > 100 | > 100 | > 100 | > 100 | > 100 | > 100 | > 100 | > 100 | > 100 | > 100 | > 100 | > 100 |  | > 100 | > 100 | > 100 |
| COC(OC)C1(c2ccccc2)Oc2ccccc2C1=O (stereo not drawn) | > 100 | > 100 | > 100 | > 100 | > 100 | > 100 | > 100 | > 100 | > 100 | > 100 | > 100 | > 100 | > 100 | > 100 | > 100 | > 100 | > 100 | > 100 | > 100 |
| C/C=C1/CN2CCC34C5=CC(=O)C(c6cc7c(cc6OC)N(C)C6=C(C(=O)OC)CC8(CC)CCCN9CCC67C98)=CC5=NC23CCC1C4C(=O)OC (stereo not drawn) | 24.9 | 30.2 | 22.9 | 37.2 | 28.1 | 4.22 | 25.6 | 28 | 31.9 | 22.8 | 23.5 | 54.3 | 26 | 23.3 | 33.1 | 30.3 | 29 | 31.1 | 5.99 |
| Cc1ccc2c(=O)c(-c3nnsn3)c[nH]c2n1 | > 100 | > 100 | > 100 | > 100 | > 100 | > 100 | > 100 | > 100 | > 100 | > 100 | > 100 | > 100 | > 100 | > 100 | > 100 | > 100 | > 100 | > 100 | > 100 |
| O=C(c1ccsc1)c1cc2c(s1)C(=O)c1ccsc1C2=O | 0.356 | 2.94 | 2.97 | 0.296 | 0.373 | > 100 | 0.549 | 4.08 | 0.403 | 0.383 | 0.496 | 0.407 | 0.933 | 0.385 | 0.405 | 0.354 | 0.675 | 0.385 | > 100 |
| COc1cc(O)c2c(=O)c3ccccc3n(C)c2c1 | > 100 | > 100 | > 100 | > 100 | > 100 | > 100 | 59.2 | > 100 | > 100 | > 100 | > 100 | > 100 | > 100 | 51.4 | > 100 |  | > 100 | > 100 | > 100 |
| O=C(COC(c1ccc(F)cc1)c1ccc(F)cc1)N1CCN(CCCc2ccccc2)CC1 | 14.1 | 12.6 | 3.36 | 14.5 | 17.3 | 14.1 | 59.6 | 11.2 | 19 | 12.6 | 11.3 | 12.8 | 11.9 | 8.1 | 16.4 | 15.2 | 9.35 | 16.5 | > 100 |
| CC(C)(C)C1CCC2c3c([nH]c4ccccc34)C3C(=O)N(c4cccc(Cl)c4)C(=O)C3C2C1 (stereo not drawn) | 22 | 53.7 | 35.8 | 33.2 | 43.7 | 13 | > 68.1 | 20 | 45.7 | 4.22 | 29.6 | 34 | 36.9 | 22.6 | 32.4 | > 100 | 48.7 | 33.4 | > 91.8 |
| CCOc1cc(NC(C)=O)ccc1C(=O)N/N=C/c1ccco1 | > 100 | > 100 | > 100 | > 100 | > 100 | > 100 | > 100 | > 100 | > 100 | > 100 | > 100 | > 100 | > 100 | > 100 | > 100 |  | > 100 | > 100 | > 100 |
| CCOC(=O)c1c(Nc2ccccc2)sc2cccnc12 | 48.3 | 26.2 | > 60.5 | > 69.7 | 59 | 51.3 | > 69.1 | 49.6 | 47.4 | 59.5 | > 83.5 | 67.8 | 65 | > 86.6 | 64.1 | > 86.4 | > 100 | 45.3 | 71.5 |
| O=C(O)C(F)(OC(F)(F)C(F)(F)C(F)(F)F)C(F)(F)F (stereo not drawn) | > 100 | > 100 | > 100 | > 100 | > 100 | > 100 | > 100 | > 100 | > 100 | > 100 | > 100 | > 100 | > 100 | > 100 | > 100 | > 100 | > 100 | > 100 |  |
| CCOC(=O)N/N=C/C1=NN(C(=O)OCC)S(=O)C1C (stereo not drawn) | > 100 | > 100 | > 100 | > 100 | > 100 | > 100 | > 100 | > 100 | > 100 | > 100 | > 100 | > 100 | > 100 | > 100 | > 100 | > 100 | > 100 | > 100 | > 100 |
| CC(C)(C)OC(=O)N1C[C@H](CC(=O)OCc2ccccc2)C[C@H]1C(=O)OCC(Cl)(Cl)Cl | > 50 | 25.9 | 9.38 | > 50 | > 50 | > 50 | > 50 | > 50 |  | > 50 | > 50 | > 50 | > 50 | > 50 | > 50 | > 50 | > 50 | > 50 | > 50 |
| Cn1c2c(c3c(=O)[nH]ncc31)CCc1ccccc1-2 | 73.4 | 45.7 | 81.1 | > 100 | > 100 | 60.6 | > 100 | > 100 | 60.2 | 79 | 47.3 | 89 | > 100 | 39.6 | > 100 | > 100 | > 100 |  | 60.7 |
| C[C@@]12C[C@@H](c3ccccc3O1)N1CCSC1=N2 | > 100 | > 100 | > 100 | > 100 | > 100 | > 100 | > 100 | > 100 | > 100 | > 100 | > 100 | > 100 | > 100 | > 100 | > 100 | > 100 | > 100 | > 100 |  |
| NNC(=O)CC(=O)Nc1ccc(C(=O)O)cc1 | > 100 |  | > 100 | > 100 | > 100 | > 100 | > 100 | > 100 | > 100 | > 100 | > 100 | > 100 | > 100 | > 100 | > 100 | > 100 | > 100 | > 100 | > 100 |
| CCOC(=O)c1c(N2CCOCC2)[nH]c(=O)c(C(c2c(O)c(C(=O)OCC)c(N3CCOCC3)[nH]c2=O)C(C)C)c1O | > 100 | > 100 | > 100 | > 100 | > 100 | > 100 | > 100 | > 100 |  | > 100 | > 100 | > 100 | > 100 | > 100 | > 100 | > 100 | > 100 | > 100 | > 100 |
| O=C1OC(C2Cc3cc4c(cc3C2=O)CCC4)c2ccccc21 (stereo not drawn) | > 100 | 61.6 | > 100 | > 100 | > 100 | > 100 | > 100 | > 100 | > 100 | > 100 | > 100 | > 100 | > 100 |  | > 100 | > 100 | > 100 | > 100 | > 100 |
| CN(C)c1ccc(/C=C2\C[C@H]3[C@@H]4CCC5=CC(=O)CC[C@]5(C)[C@H]4CC[C@]3(C)C2=O)cc1 | > 100 | > 100 | 64.8 | > 100 | > 100 | > 100 | > 100 | > 100 | > 100 | > 100 | > 100 | > 100 | 66.8 | > 100 | > 100 | > 100 | > 100 | > 100 |  |
